{"source": "patent US20100184708A1", "about": "“USE OF GLY-PRO-GLU-OH (GPE) AS A THERAPEUTIC AGENT” (priority 2007, published 2010)", "key": {"[1]": {"system": "HIV-1IIIB", "experiment": "HIV-1 antiviral assay (CPE reduction)", "assay_type": "cell-based", "details": "peptide 10 micrograms per ml; 6 days post-infection; MTS"}, "[2]": {"system": "CEM-SS cells", "experiment": "Cytotoxicity in the HIV-1 assay (MTS cell viability)", "details": "peptide 10 micrograms per ml, MTS"}, "[3]": {"system": "MRC-5 cells", "experiment": "Cytotoxicity testing in MRC-5 cells", "assay_type": "cell-based, human", "details": "6 days incubation, CellTiter 96"}, "[4]": {"experiment": "Cytotoxicity in the HBV assay (dye uptake cell viability)", "assay_type": "cell-based", "details": "human, HepG2-2.2.15 cells, peptide 10 micrograms per ml, % cell control", "protocol": "HepG2-2.2.15 cells were plated in 96-well microtiter plates. After 16-24 hours the confluent monolayer of HepG2-2.2.15 cells was washed and the medium was replaced with complete medium containing test peptide—10 micrograms per ml—in duplicate. Lamivudine (3TC) was used as the positive control, while media alone was added to the cells as a negative control (virus control). Three days later the culture medium was replaced with fresh medium containing the peptide. Six days following the initial administration of the peptide, the cell culture supernatants was collected, treated with pronase and DNAse and then used in a real-time quantitative TaqMan PCR assay. The PCR-amplified HBV DNA was detected in real-time by monitoring increases in fluorescence signals that result from the exonucleolytic degradation of a quenched fluorescence probe molecule that hybridizes to the mplified HBV DNA. For each PCR amplification, a standard curve was simultaneously generated using dilutions of purified HBV DNA. Antiviral activity was calculated from the reduction in HBV DNA levels (% virus control). A novel dye uptake assay was then employed to measure cell viability, which is used to calculate toxicity (% cell control)."}, "[5]": {"experiment": "Cytotoxicity testing in MRC-5 cells", "assay_type": "cell-based, human", "details": "human, 6 days incubation, CellTiter 96, read-out: % Cell viability"}, "[6]": {"system": "Pseudomonas aeruginosa", "assay_type": "cell-based", "details": "5 micrograms per ml"}, "[7]": {"system": "Streptococcus pneumoniae", "assay_type": "cell-based", "details": "5 micrograms per ml"}, "[8]": {"system": "MRSA", "details": "5 micrograms per ml"}, "[9]": {"experiment": "Cytotoxicity in the HIV-1 assay (MTS cell viability)", "details": "human, CEM-SS cells"}}}
{"smiles": "Cc1cn([C@H]2C[C@H](N=[N+]=[N-])[C@@H](CO)O2)c(=O)[nH]c1=O", "note": "[AZT, reference compound]", "values": [{"measurement": "% CPE reduction in HIV-1 infected CEM-SS cells", "setting": "[1]", "value": 99, "unit": "%"}, {"measurement": "% Cell viability", "setting": "[2]", "value": 97, "unit": "%"}]}
{"smiles": "Nc1nc(O)c2ncn(COC(CO)CO)c2n1", "note": "[Ganciclovir, reference compound]", "values": [{"measurement": "% Cell viability", "setting": "[3]", "value": 100, "unit": "%"}]}
{"smiles": "NCC(=O)N1CCC[C@H]1C(=O)N[C@@H](CCC(=O)O)C(=O)O", "note": "[IGF-I (1-3), Gly-Pro-Glu-OH]", "values": [{"measurement": "viability at 144 h, 10 micrograms per ml", "setting": "[4]", "value": 98.2, "unit": "%"}, {"measurement": "viability at 144 h", "setting": "[5]", "value": 100, "unit": "%"}, {"measurement": "% inhibition", "setting": "[6]", "value": 0.0, "unit": "%"}, {"measurement": "% inhibition", "setting": "[7]", "value": 0.0, "unit": "%"}, {"measurement": "% inhibition", "setting": "[8]", "value": 0.0, "unit": "%"}, {"measurement": "viability at 10 micrograms per ml", "setting": "[9]", "value": 100, "unit": "%"}]}
